# What was measured:
# [1] = tested on: alcohol-preferring (P) rats; assay: Voluntary ethanol consumption in alcohol-preferring (P) rats; format: in vivo, rat; conditions: for dose dependence of effect on ethanol intake (2-way mixed ANOVA): p<0.001
# Procedure: To perform the study, adult male P and HAD1 rats were randomly assigned to receive one of the following four doses of ibudilast—0 mg/Kg, 3 mg/Kg, 6 mg/Kg, or 9 mg/Kg with eight rats assigned to each dose. Each dosing group was balanced to average a 2 h/day ethanol (15% v/v) intake. Water was concurrently available to the rats and Mazola corn oil was used as the vehicle.
# The study was divided into four test phases. In the maintenance test phase rats in the treatment group were injected ibudilast subcutaneously (2 mL/kg s.c.), using standard solutions that deliver 3 mg/Kg, 6 mg/Kg or 9 mg/Kg of ibudilast, 60 min before each ethanol test session and the same dose of ibudilast was administered subcutaneously to the rats 8 hours later. Rats in the control group, however, are administered 2 mL/Kg Mazola corn oil subcutaneously. This protocol was carried out for 4 consecutive days. Following the maintenance test phase, is a two week no drug recovery phase during which rats are permitted access to ethanol and the amount of ethanol consumed by the rats was measured.
# The recovery phase is followed by a two week forced ethanol abstinence phase. Following forced abstinence, the effects of ibudilast on ethanol drinking were examined by re-introducing ethanol to rats for a period of 5 consecutive days (i.e., the Relapse Test phase). Each animal received the same dose of ibudilast during maintenance and relapse test phases.
# [2] = tested on: non-treatment-seeking individuals with AUD; assay: Phase 1b study: stress reactivity assessment (SR); format: in vivo, human; conditions: 50 mg BID
# From the text: Personal information collected at the time of admission (day 1) to the CRTC was used to generate personalized scripts of neutral and stressful conditions. Participants were asked to identify a recent stressful experience and to rate them on a 0 to 10 Likert scale, where a rating of 10 is considered to be the most stressful experience. Only stressful events rated≥8 were used in script development. Data on physical symptoms associated with the stressful and neutral events were also collected for script development.
# During the study, each exposure consisted of 5-minute tape-recorded scripts recounting the recent stressful (or neutral) events in the participants' lives, including cognitions and physical feelings. […]
# The following measures of mood, urge to drink, and physiological reactivity were administered at baseline and post-imagery for both the stress and neutral conditions: (1) The Profile of Mood States, Short Version (POMS) collected data on (a) positive and negative mood; (2) The Alcohol Urge Questionnaire (AUQ) measured subjective levels of alcohol cravings at the present moment (i.e., following stress imagery); (3) Cortisol levels were assessed by collecting saliva samples and heart rate and blood pressure were measured using a Dynamap Adult Vital Signs Monitor. […]
# C57BL/6J mice = assay: Chronic intermittent ethanol (CIE) exposure mouse model of ethanol dependence; format: in vivo
# Procedure: Briefly, mice were divided into test (ethanol dependent) and control (non-ethanol dependent) groups. Mice in the former group were exposed to chronic intermittent ethanol (CIE) vapor (16 hr/day×4 days), and then forced to abstain from alcohol for 72 hours. Mice were then permitted access to ethanol for 2 h/day for a 5-day test period. This pattern of weekly CIE exposures followed by 5-day test periods was repeated for 9 cycles. Mice in the control group were treated in the same manner, except these animals were exposed to air rather than ethanol vapors. Mice from both groups were further divided into four sub-groups with animals receiving 0 mg/Kg, 3 mg/Kg, 6 mg/Kg or 12 mg/Kg dose of ibudilast.
# In a separate study, adult male C57BL/6J mice were used to evaluate ibudilast as a therapeutic for the treatment of alcohol dependence. Two groups of mice were used for the study. Mice in the first group were trained to drink ethanol using a 2 h/day free-choice (15% v/v ethanol) drinking procedure (ethanol dependent (EtOH) mice), while mice in the second group were provided water and served a control (ethanol nondependent (CTL)) mice. Both the ethanol dependent and ethanol non-dependent groups had equal number of mice (N=37-38/group).
# Mice in the alcohol dependent group were then exposed to chronic intermittent ethanol (CIE) vapors for 16 hr/day over four days. After a 72 hours forced abstinence period, the ethanol dependent mice were again permitted access to ethanol for 2 hours each day over a 5 consecutive test days. This pattern of chronic intermittent ethanol vapor exposure for four consecutive days followed by forced abstinence and a five day ethanol access test period was repeated for 9 cycles. Mice in the control (CTL) group were treated in a similar manner except that air was used in the inhalation chambers in place of ethanol vapors.
# Both control and ethanol dependent mice received subcutaneous (s.c.) injections of the vehicle at 9 hours and 1 hour prior to the start of daily drinking sessions during Test Cycles 4, 5 and 6 to acclimate the animals to handling and administration of injections.
# At the end of test cycle 6, mice in the ethanol dependent group and the control group were separated into four sub-groups with animals receiving one of four doses of ibudilast—0 mg/Kg, 3 mg/Kg, 6 mg/Kg or 12 mg/Kg during Test Cycles 7 and 8. Each sub-group contained 9-10 mice (N=9-10/group). The dose of ibudilast was increased during Test Cycle 9 with ethanol dependent and control mice receiving one of the following four doses of ibudilast—0 mg/Kg, 6 mg/Kg, 12 mg/Kg, or 18 mg/Kg. Thus, mice previously receiving a dose of […] were administered ibudilast at a dose of 18 mg/Kg during Test Cycle 9.
smiles,measurement,setting,value
"CC(C)C(=O)c1c(C(C)C)nn2ccccc12 [ibudilast, Ibudilast]",reduction of ethanol intake,[1]; 5-day Relapse Test phase,about 50%
same,ethanol drinking relative to controls,"[1]; Relapse Test phase, 6 mg/Kg and 9 mg/Kg doses, p<0.05",significantly reducing ethanol drinking relative to controls
same,dose dependence of effect on ethanol intake (2-way mixed ANOVA),[1]; Relapse Test phase,dose dependent reduction in ethanol intake
same,24-hour food intake,"[1]; especially at the 9 mg/Kg dose, effect diminished over the 5-day test phase",transitory reductions
same,dose dependence of effect on ethanol intake (2-way mixed ANOVA),"[1]; maintenance test phase, 0, 3, 6, 9 mg/Kg",dose dependent reduction of ethanol intake
same,reduction of ethanol intake,"[1]; maintenance test phase, 4 days, s.c. twice daily, vs vehicle",approximately 50%
same,time course of reduced ethanol intake (Dose x Day interaction),"[1]; p<0.001, data not shown",most robust on the first day
same,stress-induced AUQ craving,[2]; day 5 stress-exposure,did not affect
same,positive mood during stress procedures,"[2]; p<0.05, FIG. 6",increased positive mood
same,ethanol intake of alcohol dependent mice vs control group counterparts,"C57BL/6J mice; 6 mg, Test Cycle 9, p<0.05",consumed significantly more ethanol
same,difference in ethanol intake between alcohol dependent and control mice,"C57BL/6J mice; 12 mg/Kg and 18 mg/Kg, Test Cycle 9",no significant difference
same,"reduction of ethanol intake, alcohol dependent vs control mice (Group x Dose interaction)","C57BL/6J mice; 12 mg/Kg and 18 mg/Kg, Test Cycle 9, p<0.01",more effective at reducing ethanol intake in alcohol dependent mice than control mice
same,ethanol intake,"C57BL/6J mice; 12 mg/Kg s.c., alcohol dependent mice, before Test Cycle 8 (FIG. 2)",reduced ethanol in alcohol dependent mice
same,ethanol consumption relative to vehicle,"C57BL/6J mice; 12 mg/Kg, Test Cycle 8, both alcohol dependent and control mice, p<0.05",reduced ethanol consumption to a greater extent
same,concurrent water intake,C57BL/6J mice; associated with decreased ethanol intake,significant increases
same,ethanol intake of test (ethanol dependent) group vs control group,C57BL/6J mice; at the higher doses (FIG. 2),below those for mice in the control group
